In US9126969B2, “Pyrazolylbenzimidazole derivatives, compositions containing them and use thereof” (AVENTIS PHARMA S.A., priority 2006, dated 2015) one finds IC50 and ratio data, which are given here for 23 molecules.

The structures appear in SMILES notation. Where a name gives a salt, the structure may show the parent alone. Read-outs that look alike come from different tables or passages of the source.

The subject of assay [1] is HeLa cells (tumor cell line). In words: FDA-PI viability/proliferation assay on HeLa tumor cells. The settings on record: for IC50: Homo sapiens; for ratio: PBL viability IC50 / HeLa viability IC50. The format is cell-based. On the procedure: (§1) The compounds were tested in a viability/proliferation assay for comparing, under similar conditions, their activity on proliferating tumor cells and on quiescent normal cells.
(§2) The HeLa cells (tumor cell line) and the PBLs (quiescent cells, peripheral blood lymphocytes) originate, respectively, from the ATCC and from Cambrex.
(§3) The HeLa cells (tumor cell line) are seeded at 0.25×10^6 cells/well in 2 mL of culture medium. The products are added 24 h after seeding. After incubation for 48 h in the presence of the products, all the HeLa cells (supernatant and adherent cells) are recovered, centrifuged and taken up in PBS containing a final concentration of 0.25 μg/mL of fluorescein diacetate (FDA), 10 μg/mL of propidium iodide (PI) and 3 μL/mL of 10 μm beads. The cell suspensions are filtered immediately before analysis on the Facscalibur. The PBLs are seeded at 10^6 cells/well in 2 mL of culture medium. The products are added 1-4 h after seeding. After incubation for 48 h in the presence of the products, half the cell suspension is recovered and incubated in the presence of a final concentration of 0.25 μg/mL of fluorescein diacetate (FDA), 10 μg/mL of propidium iodide (PI) and 2 μL/mL of 10 μm beads.
(§4) The FDA which enters the cells is cleaved by esterases only in live cells, releasing the fluorescein which emits a fluorescent radiation in the green range when it is excited (generally by UV radiation). The PI enters only the dead cells, the membrane of which is permeabilized, and emits a fluorescent radiation in the red range when it is excited. The beads are used as tracers for the dead cells having already disappeared at the time of reading.
(§5) Calculation: The % of viable cells relative to the nontreated control is given by: (number of live cells/number of live cells in the control)/(number of beads/number of beads in the control)×100 for the HeLa cells, and by: (number of live cells/number of live cells in the control)×100 for the quiescent PBLs. The products according to the invention are tested at several concentrations and an IC50, corresponding to the concentration which causes 50% of the maximum inhibition, is calculated.

The subject of assay [2] is PBLs (quiescent cells, peripheral blood lymphocytes). In words: FDA-PI viability assay on quiescent PBLs. The format is cell-based. The settings on record: Lymphocyte, 48 h incubation, read-out: Viability PBL IC50. On the procedure:
as §1, §2, §3, §4, §5

The mark [3] stands for this setting: HeLa, read-out: IC50 values on the tumor cells.
The mark [4] stands for this setting: HeLa cells, 48 h incubation, read-out: Viability HeLa IC50.

With `CCN(CC)C(=O)Nc1c[nH]nc1-c1nc2cc(F)c(OCCCN3CCCCC3)cc2[nH]1` [Example 6, 1,1-diethyl-3-{3-[5-fluoro-6-(3-piperidin-1-ylpropoxy)-1H-benzimidazol-2-yl]-1H-pyrazol-4-yl}urea Hydrochloride], the half-maximal inhibitory concentration (IC50) in assay [1] (setting [3]) was < 0.1 µM. In the case of `CCN(CC)C(=O)Nc1c[nH]nc1-c1nc2cc(F)c(N3CCOCC3)cc2[nH]1` [Example 2, 1,1-diethyl-3-[3-(5-fluoro-6-morpholin-4-yl-1H-benzimidazol-2-yl)-1H-pyrazol-4-yl]urea Trifluoroacetate], in assay [1] (setting [3]), the IC50 was < 0.1 µM. Still for that read-out and setting: under `CCN(CC)C(=O)Nc1c[nH]nc1-c1nc2cc(F)c(OCCCN(C)C)cc2[nH]1` [Example 5, 3-{3-[6-(3-dimethylaminopropoxy)-5-fluoro-1H-benzimidazol-2-yl]-1H-pyrazol-4-yl}-1,1-diethylurea Trifluoroacetate] stands < 0.1 µM. As for `CN1CCCN(c2cc3[nH]c(-c4n[nH]cc4NC(=O)N4CCCCC4)nc3cc2F)CC1.O=C(O)C(F)(F)F` [Example 17, N-{3-[5-fluoro-6-(4-methylperhydro-1,4-diazepin-1-yl)-1H-benzimidazol-2-yl]-1H-pyrazol-4-yl}-piperidine-1-carboxamide Trifluoroacetate], the IC50 in assay [1] (setting [4]) was found to be 0.1 µM; in assay [2] it was 4.25 µM. Also, in assay [1], the ratio was determined as 42. For the molecule `CCN(CC)C(=O)Nc1c[nH]nc1-c1nc2cc(OCCCCN3CCCCC3)c(F)cc2[nH]1` [Example 9, 1,1-diethyl-3-{3-[6-fluoro-5-(4-piperidin-1-ylbutoxy)-1H-benzimidazol-2-yl]-1H-pyrazol-4-yl}urea Trifluoroacetate], the half-inhibitory concentration (IC50) in assay [1] (setting [3]) was < 0.1 µM.

For the molecule `CCN(CC)C(=O)Nc1c[nH]nc1-c1nc2cc(F)c(OCCN3CCCCC3)cc2[nH]1` [Example 4, 1,1-diethyl-3-{3-[5-fluoro-6-(2-piperidin-1-ylethoxy)-1H-benzimidazol-2-yl]-1H-pyrazol-4-yl}urea Trifluoroacetate], the concentration for half-maximal inhibition (IC50) in assay [1] (setting [3]) is < 0.1 µM. Still for that read-out and setting: under `CC(C)N(C(=O)Nc1c[nH]nc1-c1nc2cc(F)c(N3CCCOCC3)cc2[nH]1)C(C)C` [Example 8, 3-[3-(5-fluoro-6-perhydro-1,4-oxazepan-4-yl-1H-benzimidazol-2-yl)-1H-pyrazol-4-yl]-1,1-diisopropylurea] stands < 0.1 µM. For `Cl.O=C(Nc1c[nH]nc1-c1nc2cc(F)c(N3CCOCC3)cc2[nH]1)N1CCCCC1` [Example 1, N-[3-(5-fluoro-6-morpholin-4-yl-1H-benzimidazol-2-yl)-1H-pyrazol-4-yl]piperidine-1-carboxamide Hydrochloride], the half-inhibitory concentration (IC50) in assay [1] (setting [4]) came out at 0.107 µM; in assay [2] it was 7.55 µM. Also, the ratio in assay [1] is given as 70. As to `CN(C)CCCOc1cc2[nH]c(-c3n[nH]cc3NC(=O)N3CCNCC3)nc2cc1F` [Example 31, N-{3-[6-(3-Dimethylaminopropoxy)-5-fluoro-1H-benzimidazol-2-yl]-1H-pyrazol-4-yl}piperazine-1-carboxamide], the IC50 in assay [1] (setting [3]) fell in the range of 5 to 30 µM. Still for that read-out and setting: the same measure for `CC(C)N(C(=O)Nc1c[nH]nc1-c1nc2cc(F)c(N3CCCN(C)CC3)cc2[nH]1)C(C)C` [Example 40, 3-{3-[5-Fluoro-6-(4-methylperhydro-1,4-diazepin-1-yl)-1H-benzimidazol-2-yl]-1H-pyrazol-4-yl}-1,1-diisopropylurea]: < 0.1 µM; for `CCN(C(=O)Nc1c[nH]nc1-c1nc2cc(F)c(OCCCN(C)C)cc2[nH]1)C(C)C` [Example 33, 3-{3-[6-(3-dimethylaminopropoxy)-5-fluoro-1H-benzimidazol-2-yl]-1H-pyrazol-4-yl}-1-ethyl-1-isopropylurea]: < 0.1 µM; for `CC(C)N(C(=O)Nc1c[nH]nc1-c1nc2cc(F)c(N3CCN(C)CC3)cc2[nH]1)C(C)C` [Example 39, 3-{3-[5-Fluoro-6-(4-methylpiperazin-1-yl)-1H-benzimidazol-2-yl]-1H-pyrazol-4-yl}-1,1-diisopropylurea trifluoroacetate]: < 0.1 µM.

As for `CCN(CC)C(=O)Nc1c[nH]nc1-c1nc2ccc(N3CCN(C)CC3)cc2[nH]1` [Example 19, 1,1-diethyl-3-{3-[6-(4-methylpiperazin-1-yl)-1H-benzimidazol-2-yl]-1H-pyrazol-4-yl}urea], the concentration for half-maximal inhibition (IC50) in assay [1] (setting [3]) was < 0.1 µM. Consider `CCN(CC)C(=O)Nc1c[nH]nc1-c1nc2cc(F)c(N3CCCOCC3)cc2[nH]1` [Example 11, 1,1-diethyl-3[3-(5-fluoro-6-perhydro-1,4-oxazepin-4-yl-1H-benzimidazol-2-yl)-1H-pyrazol-4-yl]urea], for which, in assay [1] (setting [3]), the IC50 was < 0.1 µM.

With `O=C(Nc1c[nH]nc1-c1nc2cc(F)c(N3CCCOCC3)cc2[nH]1)N1CCCCC1` [Example 38], the IC50 in assay [1] (setting [4]) turned out to be 0.085 µM; in assay [2] it was 9.17 µM. In addition, the ratio in assay [1] came out at 108. Turning to `CN1CCN(c2ccc3nc(-c4n[nH]cc4NC(=O)N4CCCCC4)[nH]c3c2)CC1` [Example 20, N-{3-[6-(4-methylpiperazin-1-yl)-1H-benzimidazol-2-yl]-1H-pyrazol-4-yl}piperidine-1-carboxamide], the IC50 in assay [1] (setting [3]) was < 0.1 µM. On the same count and under the same terms, under `CCN(CC)C(=O)Nc1c[nH]nc1-c1nc2cc(F)c(N3CCN(C)CC3)cc2[nH]1` [Example 13, 1,1-diethyl-3-{3-[5-fluoro-6-(4-methylpiperazin-1-yl)-1H-benzimidazol-2-yl]-1H-pyrazol-4-yl}urea] stands < 0.1 µM; under `CC(C)N(C(=O)Nc1c[nH]nc1-c1nc2cc(F)c(N3CCOCC3)cc2[nH]1)C(C)C` [Example 16, 3-[3-(5-fluoro-6-morpholin-4-yl-1H-benzimidazol-2-yl)-1H-pyrazol-4-yl]-1,1-diisopropylurea], < 0.1 µM. `CCN(CC)C(=O)Nc1c[nH]nc1-c1nc2cc(F)c(N3CCCN(C)CC3)cc2[nH]1` [Example 18, 1,1-diethyl-3-{3-[5-fluoro-6-(4-methylperhydro-1,4-diazepin-1-yl)-1H-benzimidazol-2-yl]-1H-pyrazol-4-yl}urea]: the IC50 in assay [1] (setting [4]) came to 0.039 µM; in assay [2], 3.76 µM. The ratio in assay [1] is listed as 96. Regarding `CC(C)N(C(=O)Nc1c[nH]nc1-c1nc2ccc(N3CCN(C)CC3)cc2[nH]1)C(C)C` [Example 34, 1,1-Diisopropyl-3-{3-[6-(4-methylpiperazin-1-yl)-1H-benzimidazol-2-yl]-1H-pyrazol-4-yl}urea], in assay [1] (setting [3]), the IC50 was < 0.1 µM. For the molecule `CCN(CC)C(=O)Nc1c[nH]nc1-c1nc2cc(F)c(NCCN(C)C)cc2[nH]1` [Example 15, 3-{3-[6-(2-dimethylaminoethylamino)-5-fluoro-1H-benzimidazol-2-yl]-1H-pyrazol-4-yl}-1,1-diethylurea Trifluoroacetate], in assay [1] (setting [3]), the IC50 was < 0.1 µM. On the same count and under the same terms, the same measure for `CCN(C(=O)Nc1c[nH]nc1-c1nc2ccc(N3CCN(C)CC3)cc2[nH]1)C(C)C` [Example 37, 1-Ethyl-1-isopropyl-3-{3-[6-(4-methylpiperazin-1-yl)-1H-benzimidazol-2-yl]-1H-pyrazol-4-yl}urea]: < 0.1 µM.

Take `CN1CCN(c2cc3[nH]c(-c4n[nH]cc4NC(=O)N4CCCCC4)nc3cc2F)CC1.O=C(O)C(F)(F)F` [Example 12, N-{3-[5-fluoro-6-(4-methylpiperazin-1-yl)-1H-benzimidazol-2-yl]-1H-pyrazol-4-yl}piperidine-1-carboxamide Trifluoroacetate]: the IC50 amounted to 0.056 µM in assay [1] (setting [4]) and 3.49 µM in assay [2]. Moreover, the ratio in assay [1] worked out at 62.

Usually IC50 stands for the concentration that gives 50% inhibition.
